{
  "source": "patent US9476099B2",
  "about": "(TRUSTEES OF DARTMOUTH COLLEGE, priority 2012, dated 2016)",
  "system": "gene promoters in NT2/D1-R1 control and DNMT3B knockdown cells",
  "test": "Genome-wide promoter methylation analysis, HumanMethylation27 BeadChip (Table 15)",
  "type": "cell-based, human",
  "conditions": "sh-3b + 5aza; DNMT3B knockdown cells",
  "procedure": "DNA methylation analysis was performed in samples in triplicate using the […] […] assay with the HumanMethylation27 BeadChip ([…]) and the BeadChip was scanned on the BeadArray Reader ([…]), according to the manufacturer's instructions. Raw data was normalized and analyzed with Genome Studio software ([…]). The HumanMethylation27 BeadChip assays 27,578 CpGs covering more than 14,000 genes, mostly from promoter regions. […] Hierarchical clustering was performed as stated above. HumanMethylation27 BeadChip data and gene expression microarray data were submitted to NCBI GEO.",
  "data": [
    {"smiles": "Nc1ncn([C@H]2C[C@H](O)[C@@H](CO)O2)c(=O)n1", "note": "[5aza]", "values": [
      {"measurement": "Mean promoter methylation, GALR1 cg04534765", "result": 0.176},
      {"measurement": "Mean promoter methylation, GCN5L2 cg08434547", "result": 0.249},
      {"measurement": "Mean promoter methylation, GNAS cg00943909", "result": 0.097},
      {"measurement": "Mean promoter methylation, HBQ1 cg07703401", "result": 0.220},
      {"measurement": "Mean promoter methylation, HCN1 cg11285003", "result": 0.202},
      {"measurement": "Mean promoter methylation, HES6 cg24127874", "result": 0.377},
      {"measurement": "Mean promoter methylation, HEYL cg25462291", "result": 0.218},
      {"measurement": "Mean promoter methylation, HRH3 cg08186362", "result": 0.297},
      {"measurement": "Mean promoter methylation, ICAM1 cg22874046", "result": 0.144},
      {"measurement": "Mean promoter methylation, ID2 cg23525180", "result": 0.201},
      {"measurement": "Mean promoter methylation, IGFBP3 cg04796162", "result": 0.230},
      {"measurement": "Mean promoter methylation, KATNB1 cg15153383", "result": 0.265},
      {"measurement": "Mean promoter methylation, KCNAB1 cg23873703", "result": 0.334},
      {"measurement": "Mean promoter methylation, KCNC2 cg18573383", "result": 0.159},
      {"measurement": "Mean promoter methylation, KIAA1822 cg02867079", "result": 0.345},
      {"measurement": "Mean promoter methylation, KIAA1840 cg06121469", "result": 0.191},
      {"measurement": "Mean promoter methylation, KRTCAP2 cg11278262", "result": 0.257},
      {"measurement": "Mean promoter methylation, LGALS1 cg00292662", "result": 0.230},
      {"measurement": "Mean promoter methylation, LGR6 cg23578193", "result": 0.187},
      {"measurement": "Mean promoter methylation, LOX cg06508445", "result": 0.101},
      {"measurement": "Mean promoter methylation, MAP6D1 cg03705396", "result": 0.201},
      {"measurement": "Mean promoter methylation, MGC9850 cg21097640", "result": 0.218},
      {"measurement": "Mean promoter methylation, MRPL38 cg11653266", "result": 0.155},
      {"measurement": "Mean promoter methylation, MT cg14078309", "result": 0.154},
      {"measurement": "Mean promoter methylation, MYOD1 cg18555440", "result": 0.321},
      {"measurement": "Mean promoter methylation, OGG1 cg25415932", "result": 0.240},
      {"measurement": "Mean promoter methylation, OR10J1 cg25076881", "result": 0.335},
      {"measurement": "Mean promoter methylation, OSTbeta cg16029760", "result": 0.144},
      {"measurement": "Mean promoter methylation, PABPC4 cg12585282", "result": 0.221},
      {"measurement": "Mean promoter methylation, PDE8B cg18089852", "result": 0.130},
      {"measurement": "Mean promoter methylation, PHLDA2 cg01263716", "result": 0.248},
      {"measurement": "Mean promoter methylation, PHLDA2 cg04720330", "result": 0.195},
      {"measurement": "Mean promoter methylation, PIB5PA cg18053607", "result": 0.247},
      {"measurement": "Mean promoter methylation, PLOD1 cg23286660", "result": 0.235},
      {"measurement": "Mean promoter methylation, PPCDC cg11632617", "result": 0.269},
      {"measurement": "Mean promoter methylation, PRDM12 cg09191327", "result": 0.240},
      {"measurement": "Mean promoter methylation, PRMT8 cg23739862", "result": 0.116},
      {"measurement": "Mean promoter methylation, PTPRO cg19402885", "result": 0.303},
      {"measurement": "Mean promoter methylation, PTPRO cg27196745", "result": 0.267},
      {"measurement": "Mean promoter methylation, R3HDML cg17692403", "result": 0.288},
      {"measurement": "Mean promoter methylation, RAB37 cg12448933", "result": 0.241},
      {"measurement": "Mean promoter methylation, RASA4 cg05749161", "result": 0.102},
      {"measurement": "Mean promoter methylation, RASL11A cg06611744", "result": 0.208},
      {"measurement": "Mean promoter methylation, SCAMP3 cg01745448", "result": 0.209},
      {"measurement": "Mean promoter methylation, SCARA5 cg10171125", "result": 0.239},
      {"measurement": "Mean promoter methylation, SEC14L2 cg14452140", "result": 0.337},
      {"measurement": "Mean promoter methylation, SH3BGRL3 cg03100146", "result": 0.341},
      {"measurement": "Mean promoter methylation, SHH cg00577464", "result": 0.212},
      {"measurement": "Mean promoter methylation, SLC6A5 cg20632573", "result": 0.192},
      {"measurement": "Mean promoter methylation, SLC25A22 cg02973416", "result": 0.318},
      {"measurement": "Mean promoter methylation, SLC35C2 cg02413850", "result": 0.155},
      {"measurement": "Mean promoter methylation, SLIT1 cg07143898", "result": 0.176},
      {"measurement": "Mean promoter methylation, SORCS3 cg16787600", "result": 0.384},
      {"measurement": "Mean promoter methylation, SOX15 cg01029592", "result": 0.171},
      {"measurement": "Mean promoter methylation, SOX15 cg13098960", "result": 0.261},
      {"measurement": "Mean promoter methylation, SOX17 cg02919422", "result": 0.329},
      {"measurement": "Mean promoter methylation, STXBP3 cg11666924", "result": 0.194},
      {"measurement": "Mean promoter methylation, SUSD2 cg23349242", "result": 0.329},
      {"measurement": "Mean promoter methylation, TBXA2R cg09998229", "result": 0.256},
      {"measurement": "Mean promoter methylation, THAP3 cg11688219", "result": 0.344},
      {"measurement": "Mean promoter methylation, TMEM25 cg20001829", "result": 0.238},
      {"measurement": "Mean promoter methylation, TMEM106C cg25884854", "result": 0.229},
      {"measurement": "Mean promoter methylation, TRAPPC1 cg01667702", "result": 0.231},
      {"measurement": "Mean promoter methylation, UBA52 cg24356797", "result": 0.145},
      {"measurement": "Mean promoter methylation, UNQ2446 cg10574499", "result": 0.218},
      {"measurement": "Mean promoter methylation, VPREB1 cg18441959", "result": 0.230},
      {"measurement": "Mean promoter methylation, ZGPAT cg04078896", "result": 0.191},
      {"measurement": "Mean promoter methylation, ZGPAT cg18611245", "result": 0.379},
      {"measurement": "Mean promoter methylation, ZNF585B cg03751813", "result": 0.182},
      {"measurement": "Mean promoter methylation, ZNF702 cg07559730", "result": 0.221}
    ]}
  ]
}
